Laboratory results: patent publication US20240069044A1, “METHOD FOR DIAGNOSING A PREDISPOSITION OF A LIVING BEING TO DEVELOP THROMBOCYTOPENIA” (priority 2021, published 2024)

Tests used:
[1] = tested on: platelets from healthy donors; test: IgG binding to platelets by flow cytometry after incubation with VITT sera; type: cell-based
[2] = tested on: washed platelets from healthy donors; test: Heparin induced platelet activation assay (HIPA) with modifications, VITT sera; type: cell-based; conditions: for platelet activation by VITT sera in the presence of the additive: result in words
Experimental: (§1) A commercially available IgG-Enzyme Immune Assay (EIA) was used in accordance to manufacturer's instructions (Hyphen Biomed, Neuville-sur-Oise, France). Per manufacturer's recommendations, a sample was considered reactive if the optical density (OD) was ≥0.500. The ability of sera to activate platelets was tested using the functional assay heparin induced platelet aggregation assay (HIPA) as previously described. In brief, serum was tested with washed platelets (wPLTs) from four different healthy donors in the absence (buffer alone) or in the presence of unfractionated heparin (0.2 IU/mL and 100 IU/mL, [Ratiopharm, Ulm, Germany]). Reactions were placed in microtiter wells containing spherical stir bars and stirred at approximately 500 revolutions per minute (rpm). Wells were examined optically at five-minutes (min) interval for loss of turbidity. A serum was considered reactive (positive) if a shift from turbidity to transparency occurred within 30 min in at least two platelet suspensions. Observation time was 45 min. Each test included a diluted serum from a patient with HIT as a weak positive control, collagen (5 μg/mL) as strong positive control and a serum from a healthy donor as a negative control.
To investigate the ability of patients sera to activate platelets, the HIPA assay was used with several modifications. Sera were incubated with washed platelets in the presence of I) buffer, II) 0.2 IU/mL LMWH, III) 100 IU/mL UFH, IV) an Fc gamma receptor IIa (FcγRIIA)-blocking monoclonal antibody (mAb IV.3), VI) 30 mg/mL IVIG, VII) 25 μg/mL PF4, VIII) 50 μg/mL Spike-RBD, IX) PF4/Spike-RBD complexes, X) PF4+RBD or XI) ChAdOx1 nCoV-19 (XII). Conditions with PF4 and RBD were also repeated in the presence of high concentration of heparin (100 IU/mL UFH). […] (FIG. 5B). […] Antibody-mediated platelet activation was inhibited when low molecular weight heparin (LMWH) was added at low concentrations by testing three sera.

[3] = tested on: washed platelets from healthy donors; test: Antibody-mediated procoagulant platelets (CD62p/PS positive) by flow cytometry, VITT sera; type: cell-based; conditions: for FI CD62p/PS positive PLTs: VITT sera with washed platelets, 0.2 IU/mL LMWH, high concentration UFH, mAb IV.3, high concentrations of IgG, PF4 or Spike-RBD, sera alone 22.94±6.14
[4] = tested on: washed platelets from healthy donors; test: Procoagulant platelets induced by HIT patient sera, washed platelets, flow cytometry; type: cell-based; conditions: for generation of procoagulant platelets by patient sera in the presence of the additive: HIT, washed platelets (FIG. 8) or PRP (FIG. 9), 0.2 IU/mL LMWH, high concentration UFH, PF4, IV.3, result in words
Experimental: Prior to usage, all sera were heat-inactivated at 56° C. for 30 min, followed by a sharp centrifugation step at 5,000 g. The supernatant was collected in a fresh tube. For determination of procoagulant platelets, 5 μL serum was incubated with 25 μL washed platelets ([…]) for 1 h under rotating conditions at RT. Where indicated, cell suspensions were preincubated with PF4 (10 μg/ml) and Heparin (0.2 or 100 IU/ml). Afterwards, samples were washed once (7 min, 650 g, RT, without brake) and gently resuspended in 75 μL of phosphate-buffered saline (PBS, Biochrom, Berlin, Germany). Platelets were then stained with Annexin V-FITC and CD62-APC (Immunotools, Friesoythe Germany) and directly analyzed by flow cytometry (FC). Test results were determined as fold increase of the percentage of double PS/CD62p positive events in platelets upon incubation with patients' sera compared to the baseline.
37.5 μl wPLTs/PRP were supplemented with 1 μl of 10 IUs heparin (final concentration 0.2 IUs) or 1 μl of 5000 IUs heparin (final concentration 100 IUs) and 5 μL serum/IgG from HIT patients or control serum/IgG. Samples were filled up with PBS to a final volume of 50 μl and incubated for 1 hour under rotating conditions at RT. Afterwards, 5 μl of the PLT suspension were transferred into a final volume of 100 μL of Hank's balanced salt solution (HBSS) containing 137 mM NaCl, 1.25 mM CaCl2), 5.5 mM glucose, [Carl-Roth, Karlsruhe, Germany]) and incubated with 1 μL anti-CD62p-APC (BD, San Jose, USA), 1 μL Annexin-FITC (Immunotools, Friesoythe, Germany) and 2 μL anti-CD42a-PerCP (BD, San Jose, USA) for 30 min at RT in the dark. PLTs that were treated with thrombin receptor activating peptide (TRAP-6, [10 μM, 30 min at RT]) and ionomycin [5 μM, 15 min at RT] (both Sigma-Aldrich, St. Louis, USA) served as positive controls. Afterwards, PLTs were resuspended with HBSS to a final volume of 500 μL and immediately assessed via flow cytometry ([FC]), Navios, Beckman-Coulter, Brea, USA).
To investigate the mechanisms of HIT antibody-induced changes on PLTs, […] wPLTs/PRP were pretreated with Fc-gamma-RIIA blocking monoclonal antibody (moAb) anti-CD32 (moAb IV.3; Stemcell™ technologies, Vancouver, Canada) or a monoclonal isotype control ([SC-2025] Santa Cruz Biotechnology, Dallas, USA) for 30 min at RT prior to HIT serum/IgG treatment.

[5] = tested on: PRP from healthy individuals; test: Procoagulant platelets in platelet rich plasma (PRP) with patient sera/HIT IgG, flow cytometry; type: cell-based; conditions: for procoagulant PLT formation by HIT IgG fractions: PRP
Experimental: IgG fractions were isolated from HIT as well as from control sera by the use of a commercially available IgG-purification-kit (Melon™-Gel IgG Spin Purification Kit, Thermo Fisher Scientific, Waltham, USA) as recommended by the manufacturers. In brief, heat inactivated serum was diluted 1:10 in purification buffer and incubated with the kit specific Gel IgG Purification Support over four cycles for 10 min. Subsequently, periodically performed centrifugation steps through a 10 μm pore size filter tube were performed for 1 min at 5000×g. The flow throw was collected into 100 kDa pore sized centrifugal filters (Amicon Ultra-4, Merck Millipore, Cork, Ireland) with subsequent concentration to the initial volume of the used serum sample via centrifugation (10-15 min, 2000×g, 4° C., with brake). IgG concentrations were measured by excitation using a NanoDrop One at a wavelength of […] (VWR, Bruchsal, Germany).
For determination of procoagulant platelets in PRP, sera were prepared as described above. For PRP preparation, venous blood from healthy individuals was withdrawn into vacutainers containing sodium citrate 0.105 M (3.2%) (BD, Plymouth, UK) and allowed to rest for 20 min at RT. PRP was prepared by centrifugation (20 min, 120 g, RT) and adjusted with autologous platelet poor plasma (PPP, [10 min, 2000 g, RT]) to a PLT count of 300×10^6/ml. […] Afterwards, samples were processed as described for washed PLTs and analysed by flow cytometry (FC). Test results were determined as fold increase of the percentage of double PS/CD62p positive events in platelets upon incubation with patients' sera compared to the baseline.
37.5 μl wPLTs/PRP were supplemented with 1 μl of 10 IUs heparin (final concentration 0.2 IUs) or 1 μl of 5000 IUs heparin (final concentration 100 IUs) and 5 μL serum/IgG from HIT patients or control serum/IgG. […] Afterwards, PLTs were resuspended with HBSS to a final volume of 500 μL and immediately assessed via flow cytometry ([FC]), Navios, Beckman-Coulter, Brea, USA).

PF4/heparin complexes = target: T1, PF4/heparin complexes (Homo sapiens, UniProt P02776); test: IgG PF4/heparin EIA with sera from VITT patients; type: binding; conditions: VITT sera (8/8), in the presence of high concentration of heparin; without: 2.591±0.642; p<0.0001
T1 construct: purchased Hyphen Biomed, Neuville-sur-Oise, France
T1 sequence (P02776 32-101): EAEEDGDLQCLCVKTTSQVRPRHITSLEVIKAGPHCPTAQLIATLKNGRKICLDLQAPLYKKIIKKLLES
Experimental: as §1

Substance | change in IgG binding to platelets in the presence of the additive ([1]; result in words) | Median time to aggregate ([2]; VITT sera with washed platelets, 0.2 IU/mL LMWH, 25 μg/mL PF4, mAb IV.3 or 30 mg/mL IVIG, buffer alone 5 min, observation time 45 min) | platelet activation by VITT sera in the presence of the additive [2] | FI CD62p/PS positive PLTs [3] | procoagulant phenotype induced by diluted VITT sera ([3]; diluted sera (from 1:64), result in words) | generation of procoagulant platelets by patient sera in the presence of the additive [4] | procoagulant phenotype, sera from HIPA negative patients with PRP ([5]; in presence of PF4, when treated with 0.2 IU/ml Heparin (LMWH)) | mean optical density [OD] of IgG antibodies against PF4/heparin complexes (PF4/heparin complexes) | FI of MFI IgG binding to platelets ([1]; heparin at high concentrations (100 IU/ml), without heparin 4.39±1.15, p 0.016) | FI of MFI of IgG binding to platelets ([1]; heparin at low concentrations (0.2 U/mL), without heparin 4.39±1.15, p 0.688) | CD62p/PS positive PLTs, mean %±SEM ([4]; HIT sera with wPLTs, supratherapeutic (Hep. 100 IUs) doses of heparin) | CD62p/PS positive PLTs, mean percent [mean %]±SEM ([4]; HIT sera with wPLTs, therapeutic (0.2 IUs) heparin, HC sera 1±0) | procoagulant PLT formation by HIT IgG fractions ([5]; supratherapeutic (100 IUs) doses of heparin) | procoagulant PLT formation by HIT IgG fractions ([5]; therapeutic doses (0.2 IUs) heparin)
PF4: small cytokine of the CXC chemokine family released from alpha-granules of activated platelets | Only one serum showed increased binding | 5 min | only in the presence e of PF4 | 37.07±23.73 fold increase | only in the presence e of PF4 | increase of procoagulant platelets | Strong increase | – | – | – | – | – | – | –
heparin | – | – | All reactions were inhibited | 1.92±0.96 fold increase | – | completely inhibited | – | 0.176±0.073 OD | 1.51±0.66 fold increase | 3.60±2.01 fold increase | 1.18±0.28% | 44.99±6.26% | not observed | showed the capability to induce procoagulant PLTs
